One series has as its system P. falciparum W2. As to the kind of experiment: Growth inhibition by SYBR Green I, multidrug-resistant strain. The following applies: Plasmodium falciparum, read-out: IC50 W2. Type of series: cell-based. On the procedure:
(§1) Chloroquine-sensitive (3D7) and multidrug-resistant (W2) strains were cultured in RPMI 1640 medium supplemented with 0.05 mg/mL gentamycin, 38.4 mM HEPES, 0.2% sodium bicarbonate, and 10% O^+ human serum, as previously described in a standardized protocol ([Trager and Jensen, 1976]). Then, erythrocytes were added to the culture to obtain a 5% hematocrit, and incubated at 37°C under 5% CO2 atmosphere, with daily exchange of medium. The parasitemia was monitored daily in smears stained with Giemsa. Synchronic cultures in the ring stage were obtained by two consecutive treatments at 48 h intervals with a 5% solution of D-sorbitol ([Lambros and Vanderberg, 1979]).
(§2) Parasites synchronized at the ring stage, with 0.5% parasitemia and 2% hematocrit were distributed in each well, separately. The compounds were tested in triplicates, using 12 point of concentration, prepared in two-fold dilution (40 μM – ∼0.019 μM) over 72 h. Chloroquine and pyrimethamine were used as control. Subsequently, the in vitro susceptibility of parasite to tested drugs was measured by SYBR Green according to [Hartwig et al. (2013)]. Briefly, 100 μL of lysis buffer (20 mM Tris, 5 mM EDTA, 0.008% wt/vol saponin, 0.08% vol/vol Triton X-100, and 0.4 μL/mL of SYBR Green) were added in each well of a new black 96-well plate and 100 μL of parasite culture incubated with drugs were added. After homogenization, the plates were incubated for 1 h in the dark. Fluorescence was measured at 490 nm excitation and 540 nm emission (CLARIOstar, Labtech BMG). The IC50 was calculated by plotting the Log doses vs. Inhibition (expressed as a percentage relative to the control) in Prism 6 (GraphPad Software Inc.).

The subject of a further series is P. falciparum 3D7. Briefly: Growth inhibition by SYBR Green I, chloroquine-sensitive strain. Type of series: cell-based. To be noted: Plasmodium falciparum, read-out: IC50 3D7. On the procedure:
as §1, §2

In the next series the target is PfdUTPase. Further details: method as in earlier work. The following applies: pKi = -logKi of literature Ki, ref Nguyen et al., 2005, 2006, Whittingham et al., McCarthy et al., 2009, Baragaña et al., 2011, Hampton et al., Ruda et al.; cited from earlier work.
The next series deals with P. berghei ANKA. Briefly: Ookinete assay (gametocyte to ookinete conversion). Format: cell-based. To be noted: Plasmodium berghei, 24 h, 21°C, ookinete formation relative to DMSO control. On the procedure:
All animal procedures were carried out in accordance to the Brazilian College of Animal Experimentation (COBEA). This research protocol was approved by the Ethics Committee of the Institute of Biomedical Sciences – University of Sao Paulo, protocol number 132/2014-CEUA. C57BL/6 mice received an intraperitoneal injection of P. berghei ANKA infected erythrocytes, and four days after infection, a mouse with parasitemia between 4 and 6% and gametocytemia > 0.4% was selected as blood donor for cardiac puncture. Four microliters of the infected blood was dispensed in 80 μl of ookinete medium ([Blagborough et al., 2012]) at 21°C with DMSO control or with 10 μM of the tested compounds. The assay was incubated at 21°C for 24 h and 2 μl of the blood at the bottom of the tubes was spread onto a glass slide, stained with Giemsa and analyzed under a direct light microscope. The total number of formed ookinetes were counted in each slide (triplicate for each condition), and inhibition was calculated in relation to the total ookinetes formed in the control condition.

On the set-up of series [1]: method as in Hit2Lead library. The following applies: calculated; ref Hit2Lead library; cited from earlier work.
A further series deals with COS7 cells. As to the kind of experiment: Cytotoxicity assay (MTT reduction). Format: cell-based, monkey. The following applies: selectivity index = COS7 CC50 / Pf IC50 (3D7). On the procedure:
(§3) Cytotoxicity assays used COS7 cells (fibroblast-like cell lines derived from monkey kidney tissue), grown in DMEM medium supplemented with 10% fetal bovine serum and 0.05 mg/mL gentamicin in atmosphere containing 5% CO2 at 37°C. Drug cytotoxicity in COS7 cells was determined in duplicate, using 12 point of concentration, prepared in two-fold dilution (200 μM – ∼ 0.097 μM). After the incubation period (72 h), the cell viability analysis were done by the MMT reduction method (3-[4,5-dimethyl-thiazol-2-yl]-2,5-diphenyltetrazolium […] ([Mosmann, 1983]). The optical density was determined at 570 nm (CLARIOstar, Labtech BMG) and the 50% cytotoxicity concentrations (CC50) was expressed as the percent viability relative to the control. The selectivity index of the compounds was determined by the following expression:
(§4) Where COS7 CC50 corresponds to the 50% cytotoxic concentration on COS7 cells and Pf IC50 is the 50 % inhibitory concentration on P. falciparum (3D7).
Background: Tetrazolium dyes change colour on reduction, which living cells bring about.

Series [2] is described as follows: Cytotoxicity assay (MTT reduction). Type of series: cell-based, monkey. To be noted: monkey; COS7 cells, 72 h. On the procedure:
as §3, §4

[3] abbreviates: asexual blood stage, multidrug-resistant W2, 72 h.
Where [4] appears, read: asexual blood stage, chloroquine-sensitive 3D7, 72 h.

Like-named read-outs stand apart in the source and are kept apart here.

The term IC50 denotes the concentration at which inhibition is half-maximal. Usually inhibition stands for the share of the control response that was lost under treatment. Read a high inhibition as strong suppression. For orientation: CC50 means the concentration at which the toxic effect on the cells reaches its halfway point. Read a high CC50 as lower toxicity to the cells.

Consider `CCN(CC)CCCC(C)Nc1ccnc2cc(Cl)ccc12` (stereo not drawn) [Chloroquine, reference compound], for which the concentration for half-maximal inhibition (IC50) with P. falciparum W2 (W2, 72 h) was 0.181 ± 0.027 µM; with P. falciparum 3D7 (3D7, 72 h), 0.011 ± 0.0006 µM.
For the molecule `O=c1ccn(C2CC(O)C(CNC(c3ccccc3)(c3ccccc3)c3ccccc3)O2)c(=O)[nH]1` (stereo not drawn) [Compound 1], the “PfdUTPase inhibition (pKi)” value on PfdUTPase is on record as 6.70.
Regarding `O=c1ccn([C@H]2C[C@H](O)[C@@H](CNC(c3ccccc3)c3ccccc3)O2)c(=O)[nH]1` [Compound 3, 2′,5′-dideoxy-5′-[(diphenylmethyl)amino]uridine], the “PfdUTPase inhibition (pKi)” value on PfdUTPase was 6.70.
In the case of `O=C(O)CCCNC(=O)C(CCOC(c1ccccc1)(c1ccccc1)c1ccccc1)Cn1ccc(=O)[nH]c1=O` (stereo not drawn) [Compound 4], the “PfdUTPase inhibition (pKi)” value at PfdUTPase is on record as 6.70.
As to `N#Cc1ccc(C(OCC2OC(n3ccc(=O)[nH]c3=O)CC2O)(c2ccccc2)c2ccccc2)cc1` (stereo not drawn) [Compound 20], the “PfdUTPase inhibition (pKi)” value on PfdUTPase is 6.03.
Regarding `CC(C)(C)[Si](C)(C)OC1CC(n2ccc(=O)[nH]c2=O)OC1CNP(=O)(Oc1ccccc1)Oc1ccccc1` (stereo not drawn) [Compound 87], the “PfdUTPase inhibition (pKi)” value at PfdUTPase was 4.17.
Take `CC(C)(C)[Si](C)(C)OC1CC(n2ccc(=O)[nH]c2=O)OC1CO` (stereo not drawn) [Compound 127]: the “PfdUTPase inhibition (pKi)” value at PfdUTPase is listed as 3.19.
Regarding `COc1ccc(C(OCC2OC3C(Oc4nc(=O)ccn43)C2O)(c2ccccc2)c2ccc(OC)cc2)cc1` (stereo not drawn) [LabMol-144], in the series with P. berghei ANKA, testing at 10 µM gave an inhibition of 44.6 ± 2.4%. Besides, the logS in series [1] is given as −5.36. For the same molecule, the IC50 is 4.23 ± 1.18 µM in the series with P. falciparum W2 (setting [3]) and 7.1 ± 2.53 µM with P. falciparum 3D7 (setting [4]). Moreover, the SI in the series on COS7 cells was 11.7. The molecule further had a CC50 at 72 h in series [2] of 81.7 ± 25.7 µM.
`COc1ccc2c(c1)c(/C=C/c1nc3ccccc3c(=O)n1-c1ccccc1)c(C)n2C` [LabMol-145] registered an inhibition at 10 µM in the series with P. berghei ANKA of 13.2 ± 24%. The logS in series [1] was −6.74. Besides, the IC50 with P. falciparum W2 (setting [3]) amounted to 15.3 ± 3.29 µM; in the series with P. falciparum 3D7 (setting [4]), 17.1 ± 16.2 µM. In the series with COS7 cells, this molecule yielded an SI of 2.7. In series [2], this molecule had a CC50 at 72 h of 46 ± 13.4 µM.
For the molecule `COc1ccc(C(OCC2OC(n3ccc(=O)[nH]c3=O)C(O)C2O)(c2ccccc2)c2ccccc2)cc1` (stereo not drawn) [LabMol-146], 10 µM produced 7.3 ± 7.3% inhibition with P. berghei ANKA. Also, the logS in series [1] is recorded as −5.04. Further, the values for the 50% inhibitory concentration (IC50) in the series with P. falciparum W2 (setting [3]) and in the series on P. falciparum 3D7 (setting [4]) were 3.2 ± 2.12 µM and 6.1 ± 1.95 µM, respectively. Moreover, the CC50 at 72 h in series [2] is 52 ± 16.4 µM.
For the molecule `CCc1nc(N)nc(N)c1-c1ccc(Cl)cc1` [Pyrimethamine, reference compound], the values for the half-maximal inhibitory concentration (IC50) with P. falciparum W2 (setting [3]) and in the series with P. falciparum 3D7 (setting [4]) were 14.7 ± 3.94 µM and 0.044 ± 0.009 µM, respectively.

The record behind these values is article PMC5845645, “QSAR-Driven Design and Discovery of Novel Compounds With Antiplasmodial and Transmission Blocking Activities” (Frontiers in Pharmacology, 2018).
